These results are taken from PMC8842279, “Exploring Non-orthosteric Interactions with a Series of Potent and Selective A3 Antagonists” (ACS Medicinal Chemistry Letters, 2022).

The melting point is the temperature of the solid-liquid transition.

Data set [1] has as its target T1, hA1 (human A1 adenosine receptor) (Homo sapiens, UniProt P30542).
T1 construct: expressed in transfected cells; host or cells: CHO
T1 sequence (P30542 1-326): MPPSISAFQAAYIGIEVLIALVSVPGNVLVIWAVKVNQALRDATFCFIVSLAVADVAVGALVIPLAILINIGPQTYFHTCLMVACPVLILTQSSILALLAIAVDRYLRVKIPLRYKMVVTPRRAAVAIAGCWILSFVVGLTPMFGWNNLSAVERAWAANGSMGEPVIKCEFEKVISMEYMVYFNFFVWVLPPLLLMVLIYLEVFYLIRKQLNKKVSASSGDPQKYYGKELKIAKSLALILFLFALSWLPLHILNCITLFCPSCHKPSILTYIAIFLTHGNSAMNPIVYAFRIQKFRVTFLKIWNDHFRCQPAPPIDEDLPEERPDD
In words: Radioligand binding, displacement of [3H]DPCPX, transfected CHO cells. Particulars: n = 2, read-out: hA1 % displacement of specific binding at 1 μM. As to the method: (§1) Briefly, hARs were expressed in transfected CHO (A1AR), HeLa (A2AAR and A3AR), and HEK-293 (A2BAR) cells. (^3H)-8-Cyclopentyl-1,3-dipropylxanthine ([^3H]DPCPX) for A1AR and [^3H]NECA for A3AR were used as radioligands in the assays. […] Ki values were calculated by fitting the data with nonlinear regression using Prism 2.1 software (GraphPad). […].
(§2) Pharmacology. Binding assays
(§3) The adenosinergic profile (affinity and selectivity) of the 18 novel pyrimidine derivatives (7-10) was evaluated in vitro (four human AR subtypes) using radioligand binding assays. Human adenosine receptors were expressed in transfected CHO (A1AR), HeLa (A2AAR and A3AR) and HEK-293 (A2BAR) cells. (3H)-1,3-Dipropyl-8-cyclopentylxanthine ([3H]DPCPX) for A1AR and [3H]NECA for A3AR were employed as radioligands in the assays. […]
displace specific radioligand binding. Ki values were obtained by fitting the data with nonlinear regression using Prism 2.1 software (GraphPad, San Diego, CA).
Furthermore, for A3AR, fluorescence polarization binding experiments were carried out in a 96-well plate (Corning 3650). D-PBS (Sigma D8537) was used as assay buffer. In each well, 100µg of membranes from Hela-A3 cell line previously prepared in our laboratory (Lot: A006/ 17-01-2020, […]
as standard and non-specific binding determined in presence of R-PIA 10µM (Sigma S739). 75 nM of the fluorescent ligand (CELT-228) was added, and the reaction mixture (Vt = 200µl) was incubated for 30 minutes at RT. The polarized fluorescence signal was read in an Infinite M1000 pro multiplate reader (Tecan 30063849). For validation of fluorescence polarization binding assay […] (hA 3AR Ki […]
representation of the concentration-response curves of the […].
(§4) (1 picture or pasted object on this page, not shown here)
For orientation: In a radioligand displacement assay an active substance lowers the binding of a labelled ligand.

Data set [2] concerns the target T2, hA2A (human A2A adenosine receptor) (Homo sapiens, UniProt P29274).
T2 construct: expressed in transfected cells; host or cells: HeLa
It counts as binding. Conditions: human HeLa cells, n = 2.

In data set [3] the target is T3, hA2B (human A2B adenosine receptor) (Homo sapiens, UniProt P29275).
T3 construct: expressed in transfected cells; host or cells: HEK-293
T3 sequence (P29275 1-332): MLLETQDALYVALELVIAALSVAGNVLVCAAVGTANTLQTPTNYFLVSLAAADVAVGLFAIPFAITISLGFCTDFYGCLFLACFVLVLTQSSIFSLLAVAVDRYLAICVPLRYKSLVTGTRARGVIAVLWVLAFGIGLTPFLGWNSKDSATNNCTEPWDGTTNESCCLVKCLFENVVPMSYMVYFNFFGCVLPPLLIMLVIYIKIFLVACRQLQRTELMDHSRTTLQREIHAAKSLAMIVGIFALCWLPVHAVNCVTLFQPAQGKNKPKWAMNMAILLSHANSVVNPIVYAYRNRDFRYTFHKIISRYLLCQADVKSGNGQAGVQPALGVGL
Kind of data set: Radioligand binding, displacement of [3H]DPCPX, transfected HEK-293 cells. Conditions: human HEK-293 cells, n = 2, read-out: hA2B % displacement of specific binding at 1 μM. The procedure: as §1, §2, §3
displace specific radioligand binding. Ki values were obtained by fitting the data with nonlinear regression using Prism 2.1 software (GraphPad, San Diego, CA). […]
as §4

T2 sequence (P29274 whole entry): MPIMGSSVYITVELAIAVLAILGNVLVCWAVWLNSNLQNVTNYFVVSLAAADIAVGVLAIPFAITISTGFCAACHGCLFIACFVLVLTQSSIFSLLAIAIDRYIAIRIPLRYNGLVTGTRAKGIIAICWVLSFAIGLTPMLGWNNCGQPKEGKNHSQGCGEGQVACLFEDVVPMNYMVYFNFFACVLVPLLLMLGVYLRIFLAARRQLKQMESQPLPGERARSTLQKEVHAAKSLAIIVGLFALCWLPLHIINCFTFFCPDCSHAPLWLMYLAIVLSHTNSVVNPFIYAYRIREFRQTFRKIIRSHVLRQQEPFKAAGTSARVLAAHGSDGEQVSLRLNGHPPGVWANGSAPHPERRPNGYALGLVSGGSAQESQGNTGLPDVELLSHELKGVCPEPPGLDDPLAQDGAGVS

Compound `COc1ccc(-c2cc(NC(=O)CCC(=O)N3CCN(CC(=O)NCc4ccccc4)CC3)nc(-c3ccc(OC)cc3)n2)cc1` [9c] gave a melting point of 194 to 195 °C. Also, the inhibition at 1 µM in data set [1] was 6%. In addition, the “hA2A % displacement of specific binding at 1 μM” value (“hA2A % displacement” for short) in data set [2] amounted to 9%. Further, the inhibition at 1 µM in data set [3] is 2%.

For `COc1ccc(-c2cc(NC(=O)CCC(=O)N(C)CC(=O)NCc3ccccc3)nc(-c3ccc(OC)cc3)n2)cc1` [7f], the figures for the inhibition at 1 µM in data set [1] and in data set [3] were 32% and 2%, respectively. Moreover, the “hA2A % displacement” value in data set [2] stood at 20%.

Take `COc1ccc(-c2cc(NC(=O)COCC(=O)N(C)CC(=O)NCc3ccccc3)nc(-c3ccc(OC)cc3)n2)cc1` [8f]: the melting point lay in the range of 166 to 168 °C. For the same compound, in data set [1], the inhibition at 1 µM is 6%. Also, in data set [2], the “hA2A % displacement” value is 1%. In data set [3], the inhibition at 1 µM was determined as 2%.

For the compound `COc1ccc(-c2cc(NC(C)=O)nc(-c3ccc(OC)cc3)n2)cc1` [ISVY-130, N-(2,6-bis(4-methoxyphenyl)pyrimidin-4-yl)acetamide, reference compound], the figures for the inhibition at 1 µM in data set [1] and in data set [3] were 1% and 4%, respectively. The “hA2A % displacement” value in data set [2] is recorded as 10%.

For `COc1ccc(-c2cc(NC(=O)COCC(=O)N3CCN(CC(=O)NCc4ccccc4)CC3)nc(-c3ccc(OC)cc3)n2)cc1` [10c], the inhibition at 1 µM in data set [1] amounted to 2%; in data set [3], 1%. In data set [2], the “hA2A % displacement” value was determined as 7%.

The compound `COc1ccc(-c2cc(NC(=O)COCC(=O)N3CCN(CC(=O)NC(C)(C)C)CC3)nc(-c3ccc(OC)cc3)n2)cc1` [10a] gave a melting point of 106 to 108 °C. Also, in data set [1], the inhibition at 1 µM was 9%. In addition, in data set [2], the “hA2A % displacement” value was found to be 36%. Moreover, the inhibition at 1 µM in data set [3] is 3%.

In the case of `COc1ccc(-c2cc(NC(=O)COCC(=O)NCC(=O)NC3CCCCC3)nc(-c3ccc(OC)cc3)n2)cc1` [8b], the melting point fell in the range of 113 to 115 °C. Besides, in data set [1], the inhibition at 1 µM stood at 6%. Moreover, in data set [2], the “hA2A % displacement” value is given as 9%. In addition, the inhibition at 1 µM in data set [3] worked out at 3%.

Consider `COc1ccc(-c2cc(NC(=O)CCC(=O)N(C)CC(=O)NC3CCCCC3)nc(-c3ccc(OC)cc3)n2)cc1` [7e], for which the inhibition at 1 µM in data set [1] is 9%; in data set [3] it was 1%. The “hA2A % displacement” value in data set [2] was 11%.

Turning to `COc1ccc(-c2cc(NC(=O)CCC(=O)N3CCN(CC(=O)NC(C)(C)C)CC3)nc(-c3ccc(OC)cc3)n2)cc1` [9a], the melting point lay within 203 to 205 °C. Also, the inhibition at 1 µM in data set [1] was determined as 19%. In addition, the “hA2A % displacement” value in data set [2] is recorded as 4%. Further, the inhibition at 1 µM in data set [3] worked out at 1%.

Regarding `COc1ccc(-c2cc(NC(=O)CCC(=O)N(C)CC(=O)NC(C)(C)C)nc(-c3ccc(OC)cc3)n2)cc1` [7d], the melting point lay in the range of 136 to 138 °C. For the same compound, the inhibition at 1 µM in data set [1] was 32%. Further, the “hA2A % displacement” value in data set [2] was 3%. Besides, the inhibition at 1 µM in data set [3] worked out at 10%.

As for `COc1ccc(-c2cc(NC(=O)CCC(=O)NCC(=O)NC(C)(C)C)nc(-c3ccc(OC)cc3)n2)cc1` [7a], the melting point lay in the range of 176 to 178 °C. Moreover, the inhibition at 1 µM in data set [1] was 10%. Further, the “hA2A % displacement” value in data set [2] was 3%. In data set [3], the inhibition at 1 µM was determined as 4%.

In the case of `COc1ccc(-c2cc(NC(=O)CCC(=O)NCC(=O)NCc3ccccc3)nc(-c3ccc(OC)cc3)n2)cc1` [7c], the melting point was 184 to 186 °C. Besides, the inhibition at 1 µM in data set [1] worked out at 2%. Moreover, in data set [2], the “hA2A % displacement” value turned out to be 3%. For the same compound, the inhibition at 1 µM in data set [3] was 3%.

In turn, `COc1ccc(-c2cc(NC(=O)CCC(=O)NCC(=O)NC3CCCCC3)nc(-c3ccc(OC)cc3)n2)cc1` [7b] came in with a melting point of 202 to 204 °C. For the same compound, the inhibition at 1 µM in data set [1] was 5%. Further, the “hA2A % displacement” value in data set [2] is reported as 9%. In addition, the inhibition at 1 µM in data set [3] was determined as 16%.

Regarding `COc1ccc(-c2cc(NC(=O)CCC(=O)N3CCN(CC(=O)NC4CCCCC4)CC3)nc(-c3ccc(OC)cc3)n2)cc1` [9b], the values for the inhibition at 1 µM in data set [1] and in data set [3] were 9% and 1%, respectively. The “hA2A % displacement” value in data set [2] worked out at 1%.

In turn, `COc1ccc(-c2cc(NC(=O)COCC(=O)N(C)CC(=O)NC(C)(C)C)nc(-c3ccc(OC)cc3)n2)cc1` [8d] came in with a melting point of 115 to 117 °C. For the same compound, the inhibition at 1 µM in data set [1] came out at 20%. Moreover, in data set [2], the “hA2A % displacement” value turned out to be 4%. For the same compound, the inhibition at 1 µM in data set [3] stood at 2%.

With `COc1ccc(-c2cc(NC(=O)COCC(=O)NCC(=O)NC(C)(C)C)nc(-c3ccc(OC)cc3)n2)cc1` [8a], the figures for the inhibition at 1 µM in data set [1] and in data set [3] were 7% and 3%, respectively. In addition, the “hA2A % displacement” value in data set [2] is listed as 9%.

In turn, `COc1ccc(-c2cc(NC(=O)COCC(=O)NCC(=O)NCc3ccccc3)nc(-c3ccc(OC)cc3)n2)cc1` [8c] returned a melting point of 201 to 203 °C. For the same compound, the inhibition at 1 µM in data set [1] is 9%. Besides, the “hA2A % displacement” value in data set [2] was 1%. In data set [3], the inhibition at 1 µM came out at 2%.

On to `COc1ccc(-c2cc(NC(=O)COCC(=O)N3CCN(CC(=O)NC4CCCCC4)CC3)nc(-c3ccc(OC)cc3)n2)cc1` [10b], for which the inhibition at 1 µM was 11% in data set [1] and 2% in data set [3]. For the same compound, the “hA2A % displacement” value in data set [2] worked out at 3%.

For the compound `COc1ccc(-c2cc(NC(=O)COCC(=O)N(C)CC(=O)NC3CCCCC3)nc(-c3ccc(OC)cc3)n2)cc1` [8e], the melting point fell in the range of 186 to 188 °C. Besides, in data set [1], the inhibition at 1 µM was determined as 13%. In addition, the “hA2A % displacement” value in data set [2] amounted to 8%. Moreover, in data set [3], the inhibition at 1 µM is 2%.
